Laboratory results: the NIST ThermoML archive (doi:10.1016/j.jct.2016.08.022)

Assay: molar heat capacity at constant pressure
Conditions: 101.33 kPa, Small (less than 1 g) adiabatic calorimetry

CCC(=O)O[C@]1(C(=O)COC(C)=O)CC[C@H]2[C@@H]3C[C@H](C)C4=CC(=O)C=C[C@]4(C)[C@H]3[C@@H](O)C[C@@]21C [Methylprednisolone aceponate]
Conditions	molar heat capacity at constant pressure [J/K/mol]
5 K, Crystal 2	1.87
7.53 K, Crystal 2	6.019
7.84 K, Crystal 2	6.56
8.09 K, Crystal 2	7.014
8.41 K, Crystal 2	7.67
8.68 K, Crystal 2	8.278
9 K, Crystal 2	8.893
9.32 K, Crystal 2	9.535
9.64 K, Crystal 2	10.2
9.98 K, Crystal 2	10.97
10 K, Crystal 2	11
10.31 K, Crystal 2	11.76
10.64 K, Crystal 2	12.47
10.99 K, Crystal 2	13.1
11.33 K, Crystal 2	13.78
11.69 K, Crystal 2	14.32
12.05 K, Crystal 2	15.03
12.88 K, Crystal 2	16.64
14.18 K, Crystal 2	19.38
15 K, Crystal 2	21.09
15.44 K, Crystal 2	22.08
16.83 K, Crystal 2	25.33
18.19 K, Crystal 2	28.78
19.58 K, Crystal 2	32.36
20 K, Crystal 2	33.51
22.18 K, Crystal 2	39.37
25 K, Crystal 2	47.69
25.63 K, Crystal 2	49.56
29.09 K, Crystal 2	59.46
30 K, Crystal 2	61.69
32.6 K, Crystal 2	68.53
36.13 K, Crystal 2	78.23
39.68 K, Crystal 2	88.41
40 K, Crystal 2	89.06
43.24 K, Crystal 2	97.8
46.82 K, Crystal 2	106.2
50 K, Crystal 2	115
50.41 K, Crystal 2	116.3
54 K, Crystal 2	126.6
57.6 K, Crystal 2	136
60 K, Crystal 2	142.6
61.21 K, Crystal 2	145.2
64.82 K, Crystal 2	155
68.42 K, Crystal 2	163.9
70 K, Crystal 2	167.5
72.02 K, Crystal 2	173
75.66 K, Crystal 2	181.2
79.32 K, Crystal 2	190.9
80 K, Crystal 2	193.1
82.52 K, Crystal 2	200.1
82.95 K, Crystal 2	200.9
85.14 K, Crystal 2	206.2
86.58 K, Crystal 2	209.8
87.56 K, Crystal 2	212.6
89.97 K, Crystal 2	218.2
90 K, Crystal 2	218.2
92.39 K, Crystal 2	223.5
94.8 K, Crystal 2	229
97.21 K, Crystal 2	234.8
97.3 K, Crystal 2	235.6
99.62 K, Crystal 2	240.5
100 K, Crystal 2	241.2
100.7 K, Crystal 2	243.6
102.02 K, Crystal 2	245.8
104.08 K, Crystal 2	251
104.42 K, Crystal 2	251.6
106.93 K, Crystal 2	257.8
107.83 K, Crystal 2	258.9
109.22 K, Crystal 2	263
109.71 K, Crystal 2	263.2
110 K, Crystal 2	264.5
111.62 K, Crystal 2	268.1
112.99 K, Crystal 2	270.3
114.02 K, Crystal 2	273.7
116 K, Crystal 2	277
116.42 K, Crystal 2	278.5
118.81 K, Crystal 2	283.7
119.02 K, Crystal 2	283.2
120 K, Crystal 2	286.4
121.2 K, Crystal 2	288.9
122.04 K, Crystal 2	290.1
123.59 K, Crystal 2	295.1
125.06 K, Crystal 2	297.7
125.98 K, Crystal 2	300
128.08 K, Crystal 2	305.6
128.36 K, Crystal 2	306
130 K, Crystal 2	309.4
130.74 K, Crystal 2	310.7
131.09 K, Crystal 1	312.1
133.12 K, Crystal 1	311.6
134.11 K, Crystal 1	310
135.5 K, Crystal 1	309.5
137.13 K, Crystal 1	310.6
137.88 K, Crystal 1	312.2
140 K, Crystal 1	315.4
140.15 K, Crystal 1	315.8
140.25 K, Crystal 1	315.6
142.62 K, Crystal 1	319.4
143.15 K, Crystal 1	320.6
144.98 K, Crystal 1	324.5
146.15 K, Crystal 1	326.3
147.34 K, Crystal 1	328.3
149.14 K, Crystal 1	331.8
149.69 K, Crystal 1	333.1
150 K, Crystal 1	333
152.05 K, Crystal 1	336.9
152.14 K, Crystal 1	336.7
154.41 K, Crystal 1	341
155.13 K, Crystal 1	342
156.76 K, Crystal 1	344
158.09 K, Crystal 1	347.4
159.09 K, Crystal 1	348.8
160 K, Crystal 1	351
161.07 K, Crystal 1	352.5
161.43 K, Crystal 1	353.5
163.77 K, Crystal 1	357.7
164.05 K, Crystal 1	358.2
166.12 K, Crystal 1	361.8
167.01 K, Crystal 1	363.8
168.46 K, Crystal 1	366.9
169.98 K, Crystal 1	368.9
170 K, Crystal 1	368.7
170.8 K, Crystal 1	371.1
172.94 K, Crystal 1	373.7
173.13 K, Crystal 1	375
175.46 K, Crystal 1	378.6
175.89 K, Crystal 1	379.5
177.8 K, Crystal 1	381
178.84 K, Crystal 1	383.9
180 K, Crystal 1	386.3
180.1 K, Crystal 1	385.2
181.78 K, Crystal 1	389.3
182.38 K, Crystal 1	390.4
184.68 K, Crystal 1	394.6
184.72 K, Crystal 1	394.9
186.99 K, Crystal 1	398.4
187.66 K, Crystal 1	399.4
189.31 K, Crystal 1	403.5
190 K, Crystal 1	404
190.59 K, Crystal 1	405.5
191.61 K, Crystal 1	407.4
193.51 K, Crystal 1	410.5
193.93 K, Crystal 1	410.9
196.2 K, Crystal 1	415.5
196.43 K, Crystal 1	414.4
198.49 K, Crystal 1	418.9
199.33 K, Crystal 1	420.1
200 K, Crystal 1	421.8
200.78 K, Crystal 1	422.8
202.47 K, Crystal 1	425.8
203.07 K, Crystal 1	427.7
205.36 K, Crystal 1	432.9
205.78 K, Crystal 1	432.4
207.65 K, Crystal 1	435.8
209.13 K, Crystal 1	438
209.94 K, Crystal 1	439.7
210 K, Crystal 1	439.9
212.24 K, Crystal 1	444.3
212.49 K, Crystal 1	444.8
214.54 K, Crystal 1	448.4
215.85 K, Crystal 1	450.6
217 K, Crystal 1	451.2
219.13 K, Crystal 1	456
219.21 K, Crystal 1	456.5
220 K, Crystal 1	458.2
221.43 K, Crystal 1	460.8
222.56 K, Crystal 1	463.6
223.73 K, Crystal 1	465.6
226.03 K, Crystal 1	469.3
228.32 K, Crystal 1	473.5
230 K, Crystal 1	476.5
230.63 K, Crystal 1	477.8
232.91 K, Crystal 1	481.1
235.22 K, Crystal 1	485.8
237.52 K, Crystal 1	490.6
239.83 K, Crystal 1	495.3
240 K, Crystal 1	494.9
242.15 K, Crystal 1	498.7
244.46 K, Crystal 1	503.6
246.77 K, Crystal 1	507.1
249.09 K, Crystal 1	511.5
250 K, Crystal 1	513.6
251.4 K, Crystal 1	516.4
253.72 K, Crystal 1	521
255.92 K, Crystal 1	524.6
256.03 K, Crystal 1	524.6
258.35 K, Crystal 1	529.7
259.52 K, Crystal 1	530.8
260 K, Crystal 1	532.3
260.9 K, Crystal 1	534.6
262.9 K, Crystal 1	537.3
262.99 K, Crystal 1	536.3
265.31 K, Crystal 1	542.1
266.27 K, Crystal 1	542.9
267.63 K, Crystal 1	546.6
269.63 K, Crystal 1	548.4
269.94 K, Crystal 1	551.7
270 K, Crystal 1	550.2
271.74 K, Crystal 1	553.4
272.99 K, Crystal 1	555.5
274.21 K, Crystal 1	556.6
276.35 K, Crystal 1	562.2
276.54 K, Crystal 1	562
278.86 K, Crystal 1	565.7
279.7 K, Crystal 1	568.4
280 K, Crystal 1	568.6
281.15 K, Crystal 1	570.9
283.05 K, Crystal 1	574.7
283.4 K, Crystal 1	575.9
285.69 K, Crystal 1	580.8
286.39 K, Crystal 1	581.4
287.93 K, Crystal 1	584.1
289.74 K, Crystal 1	587.6
290 K, Crystal 1	588.2
290.2 K, Crystal 1	587.9
292.47 K, Crystal 1	592.6
293.07 K, Crystal 1	594.1
294.75 K, Crystal 1	598.5
296.41 K, Crystal 1	600.8
297.02 K, Crystal 1	602.8
298.15 K, Crystal 1	604.8
299.28 K, Crystal 1	607.2
299.74 K, Crystal 1	606.1
300 K, Crystal 1	608.6
301.54 K, Crystal 1	611.3
303.07 K, Crystal 1	615.7
303.8 K, Crystal 1	617.2
306.05 K, Crystal 1	621.4
306.4 K, Crystal 1	622.2
308.26 K, Crystal 1	624.1
309.65 K, Crystal 1	627.8
310 K, Crystal 1	628.6
310.51 K, Crystal 1	629.5
312.76 K, Crystal 1	633
312.99 K, Crystal 1	634.1
315.01 K, Crystal 1	636.6
316.33 K, Crystal 1	639.9
317.25 K, Crystal 1	644.1
319.5 K, Crystal 1	647.2
319.67 K, Crystal 1	646.8
320 K, Crystal 1	647.5
321.75 K, Crystal 1	651.6
323.01 K, Crystal 1	652.2
324 K, Crystal 1	655.2
326.24 K, Crystal 1	660
326.36 K, Crystal 1	659.5
328.49 K, Crystal 1	664.4
329.71 K, Crystal 1	665.6
330 K, Crystal 1	666.6
330.74 K, Crystal 1	670
332.99 K, Crystal 1	672.4
333.06 K, Crystal 1	673.1
335.24 K, Crystal 1	679.6
336.41 K, Crystal 1	679.8
337.49 K, Crystal 1	684.3
339.74 K, Crystal 1	691.4
339.75 K, Crystal 1	688.9
340 K, Crystal 1	691.3
341.99 K, Crystal 1	697.1
343.1 K, Crystal 1	701.5
346 K, Crystal 1	713.9
346.44 K, Crystal 1	717.2
